Test results reported in ChEMBL document CHEMBL3826924, “Charged Nonclassical Antifolates with Activity Against Gram-Positive and Gram-Negative Pathogens” (ACS Med Chem Lett, 2016).
Values after ≈ are worked out from the molar mass of the structure shown. Active and inactive are the calls of the source. The rule behind the calls is not given here.

Legend:
Escherichia coli [1] = test: Antibacterial activity against Escherichia coli ATCC 25922 by alamar blue reagent based micro dilution broth assay; assay type: functional
Escherichia coli [2] = test: Antibacterial activity against Escherichia coli NR698 harboring imp gene deletion mutant by alamar blue reagent based micro dilution broth assay; assay type: functional
HepG2 [3] = test: Cytotoxicity against human HepG2 cells at 100 uM after 4 hrs by alamar blue assay; assay type: cell-based; details: hepg2, 4 h
[4] = Cytotoxicity against HDF at 100 uM after 4 hrs by alamar blue assay; details: human
[5] = Ratio of MIC for Escherichia coli ATCC 25922 to MIC for Escherichia coli NR698 harboring imp gene deletion mutant; assay type: functional
Escherichia coli [6] = test: Antibacterial activity against Escherichia coli JW0451 harboring AcrB gene deletion mutant by alamar blue reagent based micro dilution broth assay; assay type: functional, organism-based
Escherichia coli [7] = test: Antibacterial activity against Escherichia coli harboring macB gene deletion mutant by alamar blue reagent based micro dilution broth assay; assay type: functional, organism-based
Escherichia coli [8] = test: Antibacterial activity against Escherichia coli harboring emrB gene deletion mutant by alamar blue reagent based micro dilution broth assay; assay type: functional, organism-based
Escherichia coli [9] = test: Antibacterial activity against Escherichia coli harboring acrF gene deletion mutant by alamar blue reagent based micro dilution broth assay; assay type: functional, organism-based
Staphylococcus aureus [10] = test: microbe, parasite or virus in culture; details: ATCC 43300, 18 h
Staphylococcus aureus [11] = test: Bactericidal activity against Staphylococcus aureus ATCC 43300; assay type: functional, organism-based
[12] = Cytotoxicity against human MCF10A cells after 4 hrs by alamar blue assay; assay type: cell-based; details: MCF-10A
HepG2 [13] = test: Cytotoxicity against human HepG2 cells after 4 hrs by alamar blue assay; assay type: cell-based; details: HepG2, 4 h
[14] = Cytotoxicity against HDF after 4 hrs by alamar blue assay; details: Homo sapiens
[15] = Therapeutic index, ratio of IC50 for human MCF10A cells to MIC for Staphylococcus aureus ATCC 43300; assay type: cell-based, MCF-10A; details: read-out: TI
[16] = Therapeutic index, ratio of IC50 for human HepG2 cells to MIC for Staphylococcus aureus ATCC 43300; assay type: cell-based; details: read-out: TI
[17] = Therapeutic index, ratio of IC50 for HDF to MIC for Staphylococcus aureus ATCC 43300; details: human, read-out: TI
[18] = Therapeutic index, ratio of IC50 for human MCF10 cells to MIC for Staphylococcus aureus ATCC 43300; assay type: cell-based; details: read-out: TI
Cytochrome P450 3A4 = Cytochrome P450 3A4 (Homo sapiens, UniProt P08684); test: Inhibition of human CYP3A4 using BQ as substrate assessed as reduction in 7-hydroxyquinoline metabolite formation incubated for 30 mins by high throughput assay; assay type: ADME; details: read-out: INH
Cytochrome P450 2D6 = Cytochrome P450 2D6 (Homo sapiens, UniProt P10635); test: Inhibition of human CYP2D6 using AMMC as substrate assessed as reduction in 3-[-2-(N,Ndiethylamino)ethyl]-7-hydroxy-4-methylcoumarin hydrochloride metabolite formation incubated for 30 mins by high throughput assay; assay type: ADME; details: read-out: INH
[19] = Primary phase half life in mouse liver microsomes at 0.5 ug/ml in presence of NADPH by UPLC analysis; assay type: ADME; details: read-out: alphat1/2
[20] = Terminal half life in mouse liver microsomes at 0.5 ug/ml in presence of NADPH by UPLC analysis; assay type: ADME; details: read-out: beta t1/2
Escherichia coli [21] = test: Antibacterial activity against Escherichia coli harboring ompF gene deletion mutant by alamar blue reagent based micro dilution broth assay; assay type: functional
Escherichia coli [22] = test: Antibacterial activity against Escherichia coli harboring ompC gene deletion mutant by alamar blue reagent based micro dilution broth assay; assay type: functional
Escherichia coli [23] = test: Antibacterial activity against Escherichia coli harboring efflux pump deletion mutant after 8 hrs; assay type: functional
Escherichia coli [24] = test: Antibacterial activity against Escherichia coli W4573 after 8 hrs; assay type: functional; details: W4573, 8 h
Staphylococcus aureus [25] = test: Antibacterial activity against methicillin-resistant Staphylococcus aureus by agar dilution method; assay type: functional
Escherichia coli [26] = test: microbe, parasite or virus in culture

Chain of Cytochrome P450 2D6 (P10635 whole entry): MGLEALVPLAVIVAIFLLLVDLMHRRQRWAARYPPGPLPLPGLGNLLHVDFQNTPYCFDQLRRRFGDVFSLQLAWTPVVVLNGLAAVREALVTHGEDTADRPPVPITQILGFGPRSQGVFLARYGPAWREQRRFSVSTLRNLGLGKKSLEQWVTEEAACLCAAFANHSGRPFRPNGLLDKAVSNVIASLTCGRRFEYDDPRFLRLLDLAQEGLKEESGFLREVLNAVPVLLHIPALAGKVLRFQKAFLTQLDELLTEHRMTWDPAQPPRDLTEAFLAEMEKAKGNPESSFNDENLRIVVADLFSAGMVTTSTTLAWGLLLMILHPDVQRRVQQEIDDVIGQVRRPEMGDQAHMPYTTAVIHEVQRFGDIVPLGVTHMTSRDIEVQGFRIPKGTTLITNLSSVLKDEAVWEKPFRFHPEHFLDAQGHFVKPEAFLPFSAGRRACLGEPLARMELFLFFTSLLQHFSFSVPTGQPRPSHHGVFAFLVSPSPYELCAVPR
Chain of Cytochrome P450 3A4 (P08684 whole entry): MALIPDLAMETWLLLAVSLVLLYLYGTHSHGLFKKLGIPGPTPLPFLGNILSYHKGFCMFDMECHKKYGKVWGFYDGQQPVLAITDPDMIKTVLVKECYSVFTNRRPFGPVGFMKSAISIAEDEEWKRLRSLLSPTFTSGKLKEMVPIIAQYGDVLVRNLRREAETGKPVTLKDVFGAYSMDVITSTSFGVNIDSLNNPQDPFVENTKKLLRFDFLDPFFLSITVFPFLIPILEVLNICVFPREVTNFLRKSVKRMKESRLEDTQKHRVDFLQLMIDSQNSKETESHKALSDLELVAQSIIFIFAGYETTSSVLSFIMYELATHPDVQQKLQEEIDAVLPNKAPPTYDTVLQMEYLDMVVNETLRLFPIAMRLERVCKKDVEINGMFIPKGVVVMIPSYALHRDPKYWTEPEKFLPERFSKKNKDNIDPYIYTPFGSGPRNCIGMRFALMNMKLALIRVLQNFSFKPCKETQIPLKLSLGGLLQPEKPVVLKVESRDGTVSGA

SMILES	MIC (Escherichia coli [1]) [µg/mL]	MIC (Escherichia coli [2]) [µg/mL]	Activity (HepG2 [3])	Activity [4]	Ratio [5]	Activity (Escherichia coli [6])	Activity (Escherichia coli [7])	Activity (Escherichia coli [8])	Activity (Escherichia coli [9])	MIC (Staphylococcus aureus [10]) [µg/mL]	Activity (Staphylococcus aureus [11])	IC50 [12] [µM]	further results
CCc1nc(N)nc(N)c1C#CCc1cc(-c2cccc(C(=O)O)c2)ccc1OC.O=C(O)C(F)(F)F	> 20	0.0391	Non-toxic	Non-toxic	2000	Active	Active	Active	Active	0.625			
CCc1nc(N)nc(N)c1C#C[C@@H](C)c1cc(OC)cc(-c2ccc(C(=O)O)cc2)c1	10 (≈ 24 µM)	0.0024 (≈ 0.00576 µM)	Non-toxic	Non-toxic		Active	Active	Active	Active	0.0098 (≈ 0.0235 µM)	Active	> 100	
CCc1nc(N)nc(N)c1C#CCc1cc(OC)cc(-c2ccc(C(=O)O)cc2)c1.O=C(O)C(F)(F)F	> 20	0.0049	Non-toxic	Non-toxic		Active	Active	Active	Active	0.0195	Active	> 100	
CCc1nc(N)nc(N)c1C#CCc1cc(-c2ccc(C(=O)O)cc2)ccc1OC	> 20	0.0098 (≈ 0.0244 µM)			2000	Active	Active	Active	Active	0.0195 (≈ 0.0485 µM)		> 100	IC50 (HepG2 [13]): > 500 µM; IC50 [14]: > 500 µM; selectivity ratio [15]: > 500000; selectivity ratio [16]: > 500000; selectivity ratio [17]: > 500000; selectivity ratio [18]: > 500000; IC50 (Cytochrome P450 3A4): > 50 µM; IC50 (Cytochrome P450 2D6): > 50 µM; half-life at 0.5 ug/ml [19]: 1.65 h; half-life at 0.5 ug/ml [20]: 1.45 h
CCc1nc(N)nc(N)c1C#C[C@H](C)c1cc(OC)cc(-c2ccc(C(=O)O)cc2)c1	10 (≈ 24 µM)	0.0024 (≈ 0.00576 µM)	Non-toxic	Non-toxic		Active	Active	Active	Active	0.0098 (≈ 0.0235 µM)	Active	> 100	
CCc1nc(N)nc(N)c1C#CCc1cc(-c2ccccc2C(=O)O)ccc1OC	> 32	20 (≈ 49.7 µM)	Non-toxic	Non-toxic	2000	Active	Active	Active	Active	> 20			
CN(Cc1cnc2nc(N)nc(N)c2n1)c1ccc(C(=O)N[C@@H](CCC(=O)O)C(=O)O)cc1 [METHOTREXATE]	> 40	40 (≈ 88 µM)								> 40			MIC (Escherichia coli [21]): ≥ 40 µg/mL; MIC (Escherichia coli [22]): ≥ 40 µg/mL; MIC (Escherichia coli [23]): 64 µM (≈ 29.1 µg/mL); MIC (Escherichia coli [24]): 1000 µM (≈ 454 µg/mL); MIC50 (Staphylococcus aureus [25]): 20 µg/mL (≈ 44 µM); MIC90 (Staphylococcus aureus [25]): 100 µg/mL (≈ 220 µM)
COc1cc(Cc2cnc(N)nc2N)cc(OC)c1OC [TRIMETHOPRIM]	0.312 (≈ 1.08 µM)	0.0098 (≈ 0.0338 µM)											MIC (Escherichia coli [26]): 0.312 µg/mL (≈ 1.08 µM)
CC(=O)O.CCc1nc(N)nc(N)c1C#C[C@H](C)c1cc(-c2ccc(C(=O)O)cc2)ccc1OC	> 20	0.0391	Non-toxic	Non-toxic		Active	Active	Active	Active	0.625		> 100	
CC(=O)O.CCc1nc(N)nc(N)c1C#C[C@@H](C)c1cc(-c2ccc(C(=O)O)cc2)ccc1OC	20	0.0012	Non-toxic	Non-toxic		Active	Active	Active	Active	0.0195		> 100	
